# Test system: neutrophils
# Experiment: Measurement of neutrophil apoptosis (Annexin V FITC / propidium iodide, flow cytometry)
# Assay type: cell-based
# Conditions: 10 nM, 8 h, isolated human neutrophils, Annexin V positive / PI negative cells taken as apoptotic
# From the text: The neutrophils were isolated from the peripheral blood of healthy human donors as described previously (Afford et al 1992). Briefly, blood was collected into tubes containing EDTA followed by usage of 2% dextran solution for sedimentation of erythrocytes. The neutrophils were then isolated from leukocyte layer using a discontinuous Percoll density gradient centrifugation (Sigma- Aldrich, Poole, UK) and resuspended in RPMI 1640 medium (Sigma- Aldrich) supplemented with 10% heat-inactivated fetal bovine serum (Sera Laboratories International, Bolney, UK), 2 mM glutamine, 100 U/ml penicillin and 100 µg/ml streptomycin (Sigma-Aldrich). The purity of isolated neutrophils was assessed by Giemsa staining (Diff-Quick, Baxter Healthcare, UK) and light microscopy and was routinely greater than 97%. The neutrophils were then cultured in the presence of novel compounds (single concentration of 10 nM, or several increasing concentrations ranging from 10 nM to 1 µM) and other stimulating factors for 8 h.
# For evaluation of early apoptosis, neutrophils were double stained with anti-Annexin V FITC-conjugated antibody (BD Pharmingen) binding extracellular phosphatidylserine and propidium iodide detecting late apoptotic and necrotic cells. After appropriate treatment, cells were washed with PBS and then resuspended in 100 µl of Annexin V buffer (10 mM HEPES, pH 7.4; 140 mM NaCl; 2.5 mM CaCl2). 1 µl of anti-Annexin V FITC-conjugated antibody was added and cells were then incubated at room temperature for 10 minutes followed by addition of propidium iodide at final concentration of 5 µg/ml. Fluorescence was analyzed by flow cytometry (BD Accuri C6 Flow Cytometer, Accuri Cytometers Inc.) with Annexin V positive / PI negative cells taken as apoptotic.
row,SMILES,% of apoptotic cells [%]
1,CC(CCO)Nc1nc(NCc2ccc(-c3cccs3)cc2)c2[nH]nc(C(C)C)c2n1 (racemic) [compound 44],38
2,"CC(C)c1n[nH]c2c(Cl)nc(S(C)(=O)=O)nc12 [compound 1, 7-Chloro-3-isopropyl-5-methylsulfonyl-1H-pyrazolo[4,3-d]pyrimidine]",32
3,"CC(C)c1n[nH]c2c(NCc3ccc(-c4ccco4)cc3)nc(S(C)(=O)=O)nc12 [compound 2, 3-Isopropyl-5-methylsulfonyl-7-[4-(furan-2-yl)benzyl]amino-1H-pyrazolo[4,3-d]pyrimidine]",41
4,"CC(C)c1n[nH]c2c(NCc3ccc(-c4cccs4)cc3)nc(S(C)(=O)=O)nc12 [compound 3, 3-Isopropyl-5-methylsulfonyl-7-[4-(thiophen-2-yl)benzyl]amino-1H-pyrazolo[4,3-d]pyrimidine]",58
5,"CC(C)c1n[nH]c2c(NCc3ccc(-n4cccn4)cc3)nc(S(C)(=O)=O)nc12 [compound 6, 3-Isopropyl-5-methylsulfonyl-7-[4-(1H-pyrazol-1-yl)benzyl]amino-1H-pyrazolo[4,3-d]pyrimidine]",36
6,CC(C)c1n[nH]c2c(NCc3ccc(-c4ccco4)cc3)nc(NCCO)nc12 [compound 7],47
7,"CC(C)c1n[nH]c2c(NCc3ccc(-c4ccco4)cc3)nc(NCC(O)CN)nc12 (stereo not shown) [compound 15, 3-Isopropyl-5-(3-amino-2-hydroxypropyl)amino-7-[4-(furan-2-yl)benzyl]amino-1H-pyrazolo[4,3-d]pyrimidine]",52
8,CC(C)c1n[nH]c2c(NCc3ccc(-c4ccco4)cc3)nc(NCCCCCCN)nc12 [compound 30],39
9,"CC(C)c1n[nH]c2c(NCc3ccc(-c4ccco4)cc3)nc(NCC(C)(C)O)nc12 [compound 31, 3-Isopropyl-5-(2-hydroxy-2-methylpropyl)amino-7-[4-(furan-2-yl)benzyl]amino-1H-pyrazolo[4,3-d]pyrimidine]",50
10,"CC(C)c1n[nH]c2c(NCc3ccc(-c4cccs4)cc3)nc(NCC(C)(C)O)nc12 [compound 32, 3-Isopropyl-5-(2-hydroxy-2-methylpropyl)amino-7-[4-(thiophen-2-yl)benzyl]amino-1H-pyrazolo[4,3-d]pyrimidine]",48
11,CC(C)c1n[nH]c2c(NCc3ccc(-c4cccs4)cc3)nc(NCCC(C)(C)O)nc12 [compound 33],36
12,CC(C)c1n[nH]c2c(NCc3ccc(-c4cccs4)cc3)nc(NCC(O)CO)nc12 (stereo not shown) [compound 34],52
13,CC(C)c1n[nH]c2c(NCc3ccc(-c4cccs4)cc3)nc(NC[C@H](C)O)nc12 [compound 42],57
14,CC(C)c1n[nH]c2c(NCc3ccc(-c4cccs4)cc3)nc(N[C@H](C)CCO)nc12 [compound 45],33
15,CC(C)c1n[nH]c2c(NCc3ccc(-n4cccn4)cc3)nc(NCCCCN)nc12 [compound 58],44
16,CC(C)c1n[nH]c2c(NCc3ccc(-n4cccn4)cc3)nc(NCCCCCN)nc12 [compound 59],49
17,CC(C)c1n[nH]c2c(NCc3ccc(-n4cccn4)cc3)nc(NCCCCCCN)nc12 [compound 60],60
18,"CC(C)c1n[nH]c2c(NCc3ccc(-n4cccn4)cc3)nc(NCC(O)CN)nc12 (stereo not shown) [compound 61, 3-Isopropyl-5-(3-amino-2-hydroxypropyl)amino-7-[4-(1H-pyrazol-1-yl)benzyl]amino-1H-pyrazolo[4,3-d]pyrimidine]",40
19,CCN(CC)CCNc1nc(NCc2ccc(N3CCCC3)cc2)c2[nH]nc(C(C)C)c2n1 [compound 63],39
20,CCN(CC)C(C)CCNc1nc(NCc2ccc(N3CCCC3)cc2)c2[nH]nc(C(C)C)c2n1 (stereo not shown) [compound 65],56
21,CC(C)c1n[nH]c2c(NCc3ccc(N4CCCC4)cc3)nc(NCC(C)(C)O)nc12 [compound 66],34

# Test system: neutrophils
# Experiment: Superoxide generation assay (luminol-based chemiluminescent assay, fMLP stimulus)
# Assay type: cell-based
# Conditions: isolated human neutrophils, GM-CSF present, compound 1 h, fMLP 2.5 µM, luminol 100 µM (Figure 2)
# Description: Isolated human neutrophils were incubated in the presence of prosurvival factor GM-CSF with or without the compound at indicated concentrations for 1 h.
# Levels of reactive oxygen species (ROS) generated by neutrophils were measured using a luminol-based chemiluminescent assay (Gyllenhammar 1987). After treatment, neutrophils were resuspended in Hank's Balanced Salt Solution (HBSS) containing calcium and magnesium (Gibco) and transferred to opaque 96 well plates (Greiner Bio-One GmbH). Luminol was then added to each well at final concentration of 100 µM followed by a measuring of chemiluminescence in response to the stimulus fMLP (2.5 µM) at 1 min intervals for 30 min by means of a luminometer (Centro LB 960, Berthold Technologies, Bad Wildbad, Germany).
row,SMILES,neutrophil oxygen radical production induced by fMLP
1,"CC(C)c1n[nH]c2c(NCc3ccc(-c4ccco4)cc3)nc(NCC(O)CN)nc12 (stereo not shown) [compound 15, 3-Isopropyl-5-(3-amino-2-hydroxypropyl)amino-7-[4-(furan-2-yl)benzyl]amino-1H-pyrazolo[4,3-d]pyrimidine]",inhibits

# Source: patent EP3325480B1, “5-SUBSTITUTED-7-[4-(SUBSTITUTED) BENZYL]AMINO-3-ISOPROPYLPYRAZOLO (4,3-D) PYRIMIDINES AS MEDICAMENTS” (Ustav experimentalni botaniky AV CR, v.v.i., priority 2015, dated 2017)
